The subject of assay [1] is ICAM-1 expressed on HUVEC. Briefly: Test about suppression of ICAM-1 expression (enzyme immuno assay, EIA), TNF-α-stimulated HUVEC. The format is cell-based. The conditions noted are these: Homo sapiens, TNF-α 0.3 ng/ml. As for the experimental part:
Using a culture broth containing serum for vascular endothelial cell (manufactured by Nissui Pharmaceutical Co., Ltd.) as a culture medium, HUVEC (umbilical vein endothelial cell manufactured by Morinaga Bioscience Institute) was cultured in a collagen-treated flask by the routine method.
For carrying out a test about the suppression of ICAM-1 expression with HUVEC, a collagen-treated 96-well plate was used, where HUVEC was added at 1 to 2×10^4 cells/well while the culture medium was added at 100 to 200 μl/well. The cell was cultured in 5% CO2 at 37° C. for 48 to 72 hours. Before adding a test solution, the culture medium (80 μl) was exchanged, to which 10 μl of a test solution preliminarily diluted was then added. The plate was allowed to stand alone in a CO2 incubator. 2 hours later, 10 μl of TNF-α (recombinant human TNF-α, manufactured by Genzyme) was added (to a final concentration of 0.3 ng/ml). The resulting plate was again allowed to stand alone in the CO2 incubator. 16 to 22 hours later, the cell was fixed with 1% p-formaldehyde solution. The cell was rinsed with a phosphate buffer containing Ca^2+ and Mg^2+, which was then treated with an anti-human ICAM-1 antibody (mouse IgG1, manufactured by Kyowa Medics) at ambient temperature for 30 minutes. After the cell was rinsed again with the phosphate buffer, the cell was treated with a peroxide-labeled anti-mouse IgG (H+L) (manufactured by Organon Teknik Corp.) for another 30 minutes. After the cell was again rinsed with the phosphate buffer, the color developed was measured, using a peroxidase chromogenic kit (manufactured by Sumitomo Bakelite Co., Ltd.), to determine ICAM-1 expressed on HUVEC as an expression-inhibiting ratio (%) to a non-drug group to calculate the IC50 value.

The test system of assay [2] is footpad thickness, MeHSA-sensitized C57BL/6 mouse. Nature of the assay: Methylated human serum albumin-induced delayed hypersensitivity test (MeHSA-DTH). The conditions noted are these: oral, twice, footpad thickness 24 hours after induction. The format is in vivo. The method, then: Methylated human serum albumin (MeHSA) was dissolved in physiological saline to 5 mg/ml, which was then mixed with an equal volume of the complete Freund's adjuvant (manufactured by Iatron), to prepare an emulsion. Next, 100 μl of the prepared emulsion was injected subcutaneously into a 8-week-old male C57BL/6 mouse, for antigen sensitization. Seven days thereafter, MeHSA was dissolved in physiological saline to 1 mg/ml, which was injected at 25 μl subcutaneously into the footpad of the right hind limb, to trigger a reaction. The thickness of the footpad was measured 24 hours after the induction of the reaction, to calculate the difference from the thickness thereof before the induction of the reaction, to make an assessment. Additionally, drugs were orally given twice, namely one hour before the induction of the reaction and 16 hours after the induction thereof.

In assay [3] the test system is collagen-induced arthritis, DBA/1J mouse. Briefly: Test using collagen arthritis model in mouse. The assay is classed as in vivo. The conditions noted are these: 30 mg/kg, oral daily after secondary sensitization, two weeks after secondary sensitization, non-drug group 5.7. The method, then: Type II collagen derived from bovine joint was dissolved in 0.1 M acetate saline to 2 mg/ml, with which an equal volume of the complete Freund's adjuvant (manufactured by Iatron) was mixed, to prepare an emulsion. For primary sensitization, the emulsion was injected intracutaneously into the tail root of a 8-week-old male DBA/1J mouse. Twenty-one days thereafter, 0.1 ml of an emulsion prepared in the same manner was intracutaneously injected into the dorsal part of the mouse, for secondary sensitization, to trigger the onset of arthritis. Two weeks after the secondary sensitization, the symptoms of arthritis were visually observed (0: normal; 1: swelling and reddening of finger tips; 2: mild swelling and reddening of parts distal from joints of hands and foots; 3: severe swelling and reddening of parts distal from joints of hands and foots). The symptoms of arthritis were observed individually over the four limbs. The total was defined as the arthritis score of an individual. Further, a test drugs was suspended in 0.5% methyl cellulose and orally given daily after the secondary sensitization.

The test system of assay [4] is A549 (human lung cancer cell). Briefly: Test about the suppression of cell growth (MTT). To be noted: 72 h, A549, 3 days. The format is cell-based. The method, then:
(§1) Various cancer cells and normal cell as cultured in a culture broth to 70 to 90% confluency were used. After the culture broth was removed, 0.25% trypsin/1 mM-EDTA solution was added to scrape off the cells and count the cells. Then, a cell suspension of 5×10^4 cells/ml was prepared. The suspension was divided at 90 μl/well into a 96-well plate, and allowed to stand alone in a CO2 incubator. On the next day, (a 0 to 10 μM test drug (the compound of Example 5) was added at 10 μl/well, for gentle shaking for sufficiently mixing the test drug with the liquid culture. After culturing for 3 days, each 10-μl portion of aqueous 5 mg/ml MTT (3-(4,5-dimethylthiazol-2-yl)-2,5-diphenyltetrazolium bromide) solution was added. After culturing in the CO2 incubator for another 4 hours, 100 μl of a 2-propanol solution containing 0.04N hydrochloric acid was added to each well, for terminating the reaction. The generated MTT formazan was sufficiently dissolved with a multi-channel pipette, to measure the absorbance at 595 nm, using a control wavelength of 655 nm. The measured absorbance was analyzed by non-linear regression analysis using a model formula by the MTT method, to calculate the concentration at which the cell growth was inhibited by 50% (IC50). The cells used at this test and the culture broths therefor are as shown below. • 1) Cell: A549 (human lung cancer cell, Human Science Foundation) • Culture broth: DMEM (Dulbecco's modified Eagle medium)+10% FBS (fetal bovine serum) • 2) Cell: PC-3 (human prostate cancer cell, ATCC) • Culture broth: DMEM+10% FBS • 3) Cell: AsPC-1 (human pancreas cancer cell, Tokyo University) • Culture broth: DMEM+10% FBS • 4) Cell: HT-1080 (human fibrosarcoma cell, ATCC) • Culture broth: DMEM+10% FBS • 5) Cell: Hepatocyte (normal human liver cell, ACRBI) • Culture broth: CS-C (Cell Systems) • 6) Cell: NHDF (normal human fibroblast cell, Kurabo) • Culture broth: DMEM+10% FBS • 7) Cell: BAE (normal bovine aorta vascular endothelial cell, ACRBI) • Culture broth: CS-C (Cell systems)

The test system of assay [5] is AsPC-1 (human pancreas cancer cell). Briefly: Test about the suppression of cell growth (MTT). The assay is classed as cell-based. The conditions noted are these: ASPC1, 72 h, AsPC-1, 3 days. As for the experimental part: as §1
For assay [6], the system named is BAE (normal bovine aorta vascular endothelial cell). Nature of the assay: Test about the suppression of cell growth (MTT). The assay is classed as cell-based. To be noted: Bos taurus, 72 h, 3 days. The method, then: as §1
The subject of assay [7] is HT-1080 (human fibrosarcoma cell). Nature of the assay: Test about the suppression of cell growth (MTT). The assay is classed as cell-based. The conditions noted are these: 72 h, HT-1080, 3 days. The method, then: as §1
The test system of assay [8] is Hepatocyte (normal human liver cell). Nature of the assay: Test about the suppression of cell growth (MTT). The assay is classed as cell-based. The conditions noted are these: 72 h, 3 days. The method, then:
as §1

Assay [9] has as its system NHDF (normal human fibroblast cell). Nature of the assay: Test about the suppression of cell growth (MTT). The format is cell-based. The conditions noted are these: 72 h, 3 days. The method, then: as §1
The subject of assay [10] is PC-3 (human prostate cancer cell). Briefly: Test about the suppression of cell growth (MTT). The assay is classed as cell-based. The conditions noted are these: 72 h, PC-3, 3 days. The method, then: as §1

Marks after values point to notes of the source that are not given here.

A word on the IC50: it is the concentration that gives 50% inhibition.

In the case of `C/C(=C\C=C\[C@@H]1[C@H]2[C@H](C)[C@@H](O)[C@H](C)C[C@@H]2C=C[C@@H]1C)C(=O)NCc1cccnc1` [Example 5, N-(Pyridin-3-ylmethyl)-(2E,4E)-5-[(1S,2S,4aR,6R,7S,8S,8aS)-7-hydroxy-2,6,8-trimethyl-1,2,4a,5,6,7,8,8a-octahydronaphthalen-1-yl]-2-methylpenta-2,4-dienamide], the IC50 in assay [1] was found to be 170 nM; in assay [4], 85 nM; in assay [5], 113 nM; in [6], 9400 nM; in assay [7], 70 nM; in [8], 430 nM. Besides, the IC50 in assay [9] was found to be 600 nM; in [10], 67 nM. Also, the “Suppression ratio (%)” value in assay [2] (10 mg/kg) was 27.5* %; in assay [2] (30 mg/kg), 51.5** %. Further, the Arthritis score in [3] is 2.1*.
